According to patent US20260069588A1, “VEPDEGESTRANT FOR USE IN TREATING CANCER” (Arvinas Operation, Inc., priority 2022, published 2026):

Assay: Phase 1 single agent studies in Japanese and Chinese participants (C4891016, C4891018): adverse events
[1] = TEAE treatment related, 200 mg, N = 15

Text: TEAE's from participants in both studies have been combined and are described below.

O=C1CC[C@H](N2Cc3cc(N4CCN(CC5CCN(c6ccc([C@@H]7c8ccc(O)cc8CC[C@@H]7c7ccccc7)cc6)CC5)CC4)ccc3C2=O)C(=O)N1 [Compound A, (S)-3-(5-(4-((1-(4-((1R,2S)-6-hydroxy-2-phenyl-1,2,3,4-tetrahydronaphthalen-1-yl)phenyl)piperidin-4-yl)methyl)piperazin-1-yl)-1-oxoisoindolin-2-yl)piperidine-2,6-dione]
participants with a TRAE (200 mg): 11 of 15 participants | participants with a TEAE (200 mg, 15 evaluable): 73.3% | participants with grade 3-4 TEAE (200 mg, 15 evaluable): 33.4% | TEAE Alanine aminotransferase increased (200 mg, N=15): 26.7% | TEAE anemia (200 mg, N=15): 40.0% | TEAE electrocardiogram QT prolonged (200 mg, N=15): 33.3% | TEAEs constipation, hyperuricemia, hypokalaemia, neutrophil count decreased, each (200 mg, N=15): 20.0% | TRAEs alanine aminotransferase increased and electrocardiogram QT prolonged, each (200 mg, N=15): 20.0% | TRAEs aspartate aminotransferase increased, constipation, hyperuricemia, neutrophil count decreased, each (200 mg, N=15): 13.3% | SAEs (3 participants, 6 Jun 2023): 3 SAEs | Abdominal discomfort, Grade 1 [1]: 1 (6.7) n (%) | Abdominal discomfort, Grade 2 [1]: 0 n (%) | Abdominal discomfort, Grade 3 [1]: 0 n (%) | Abdominal discomfort, Grade 4 [1]: 0 n (%) | Abdominal discomfort, Grade 5 [1]: 0 n (%) | Abdominal discomfort, Missing or Unknown [1]: 0 n (%) | Abdominal discomfort, Total [1]: 1 (6.7) n (%) | Alanine aminotransferase increased, Grade 1 [1]: 3 (20.0) n (%) | Alanine aminotransferase increased, Grade 2 [1]: 0 n (%) | Alanine aminotransferase increased, Grade 3 [1]: 0 n (%) | Alanine aminotransferase increased, Grade 4 [1]: 0 n (%) | Alanine aminotransferase increased, Grade 5 [1]: 0 n (%) | Alanine aminotransferase increased, Missing or Unknown [1]: 0 n (%) | Alanine aminotransferase increased, Total [1]: 3 (20.0) n (%) | Alopecia, Grade 1 [1]: 1 (6.7) n (%) | Alopecia, Grade 2 [1]: 0 n (%) | Alopecia, Grade 3 [1]: 0 n (%) | Alopecia, Grade 4 [1]: 0 n (%) | Alopecia, Grade 5 [1]: 0 n (%) | Alopecia, Missing or Unknown [1]: 0 n (%) | Alopecia, Total [1]: 1 (6.7) n (%) | Anemia, Grade 1 [1]: 0 n (%) | Anemia, Grade 2 [1]: 1 (6.7) n (%) | Anemia, Grade 3 [1]: 0 n (%) | Anemia, Grade 4 [1]: 0 n (%) | Anemia, Grade 5 [1]: 0 n (%) | Anemia, Missing or Unknown [1]: 0 n (%) | Anemia, Total [1]: 1 (6.7) n (%) | Arthralgia, Grade 1 [1]: 1 (6.7) n (%) | Arthralgia, Grade 2 [1]: 0 n (%) | Arthralgia, Grade 3 [1]: 0 n (%) | Arthralgia, Grade 4 [1]: 0 n (%) | Arthralgia, Grade 5 [1]: 0 n (%) | Arthralgia, Missing or Unknown [1]: 0 n (%) | Arthralgia, Total [1]: 1 (6.7) n (%) | Aspartate aminotransferase increased, Grade 1 [1]: 2 (13.3) n (%) | Aspartate aminotransferase increased, Grade 2 [1]: 0 n (%) | Aspartate aminotransferase increased, Grade 3 [1]: 0 n (%) | Aspartate aminotransferase increased, Grade 4 [1]: 0 n (%) | Aspartate aminotransferase increased, Grade 5 [1]: 0 n (%) | Aspartate aminotransferase increased, Missing or Unknown [1]: 0 n (%) | Aspartate aminotransferase increased, Total [1]: 2 (13.3) n (%) | Bilirubin conjugated increased, Grade 1 [1]: 0 n (%) | Bilirubin conjugated increased, Grade 2 [1]: 1 (6.7) n (%) | Bilirubin conjugated increased, Grade 3 [1]: 0 n (%) | Bilirubin conjugated increased, Grade 4 [1]: 0 n (%) | Bilirubin conjugated increased, Grade 5 [1]: 0 n (%) | Bilirubin conjugated increased, Missing or Unknown [1]: 0 n (%) | Bilirubin conjugated increased, Total [1]: 1 (6.7) n (%) | Blood and lymphatic system disorders, Grade 1 [1]: 0 n (%) | Blood and lymphatic system disorders, Grade 2 [1]: 1 (6.7) n (%) | Blood and lymphatic system disorders, Grade 3 [1]: 0 n (%) | Blood and lymphatic system disorders, Grade 4 [1]: 0 n (%) | Blood and lymphatic system disorders, Grade 5 [1]: 0 n (%) | Blood and lymphatic system disorders, Missing or Unknown [1]: 0 n (%) | Blood and lymphatic system disorders, Total [1]: 1 (6.7) n (%) | Blood bilirubin increased, Grade 1 [1]: 0 n (%) | Blood bilirubin increased, Grade 2 [1]: 1 (6.7) n (%) | Blood bilirubin increased, Grade 3 [1]: 0 n (%) | Blood bilirubin increased, Grade 4 [1]: 0 n (%) | Blood bilirubin increased, Grade 5 [1]: 0 n (%) | Blood bilirubin increased, Missing or Unknown [1]: 0 n (%) | Blood bilirubin increased, Total [1]: 1 (6.7) n (%) | Blood bilirubin unconjugated increased, Grade 1 [1]: 1 (6.7) n (%) | Blood bilirubin unconjugated increased, Grade 2 [1]: 0 n (%) | Blood bilirubin unconjugated increased, Grade 3 [1]: 0 n (%) | Blood bilirubin unconjugated increased, Grade 4 [1]: 0 n (%) | Blood bilirubin unconjugated increased, Grade 5 [1]: 0 n (%) | Blood bilirubin unconjugated increased, Missing or Unknown [1]: 0 n (%) | Blood bilirubin unconjugated increased, Total [1]: 1 (6.7) n (%) | Cardiac disorders, Grade 1 [1]: 1 (6.7) n (%) | Cardiac disorders, Grade 2 [1]: 0 n (%) | Cardiac disorders, Grade 3 [1]: 0 n (%) | Cardiac disorders, Grade 4 [1]: 0 n (%) | Cardiac disorders, Grade 5 [1]: 0 n (%) | Cardiac disorders, Missing or Unknown [1]: 0 n (%) | Cardiac disorders, Total [1]: 1 (6.7) n (%) | Constipation, Grade 1 [1]: 2 (13.3) n (%) | Constipation, Grade 2 [1]: 0 n (%) | Constipation, Grade 3 [1]: 0 n (%) | Constipation, Grade 4 [1]: 0 n (%) | Constipation, Grade 5 [1]: 0 n (%) | Constipation, Missing or Unknown [1]: 0 n (%) | Constipation, Total [1]: 2 (13.3) n (%) | Decreased appetite, Grade 1 [1]: 1 (6.7) n (%) | Decreased appetite, Grade 2 [1]: 0 n (%) | Decreased appetite, Grade 3 [1]: 0 n (%) | Decreased appetite, Grade 4 [1]: 0 n (%) | Decreased appetite, Grade 5 [1]: 0 n (%) | Decreased appetite, Missing or Unknown [1]: 0 n (%) | Decreased appetite, Total [1]: 1 (6.7) n (%) | Dizziness, Grade 1 [1]: 1 (6.7) n (%) | Dizziness, Grade 2 [1]: 0 n (%) | Dizziness, Grade 3 [1]: 0 n (%) | Dizziness, Grade 4 [1]: 0 n (%) | Dizziness, Grade 5 [1]: 0 n (%) | Dizziness, Missing or Unknown [1]: 0 n (%) | Dizziness, Total [1]: 1 (6.7) n (%) | Electrocardiogram QT prolonged, Grade 1 [1]: 2 (13.3) n (%) | Electrocardiogram QT prolonged, Grade 2 [1]: 0 n (%) | Electrocardiogram QT prolonged, Grade 3 [1]: 1 (6.7) n (%) | Electrocardiogram QT prolonged, Grade 4 [1]: 0 n (%) | Electrocardiogram QT prolonged, Grade 5 [1]: 0 n (%) | Electrocardiogram QT prolonged, Missing or Unknown [1]: 0 n (%) | Electrocardiogram QT prolonged, Total [1]: 3 (20.0) n (%) | Fatigue, Grade 1 [1]: 1 (6.7) n (%) | Fatigue, Grade 2 [1]: 0 n (%) | Fatigue, Grade 3 [1]: 0 n (%) | Fatigue, Grade 4 [1]: 0 n (%) | Fatigue, Grade 5 [1]: 0 n (%) | Fatigue, Missing or Unknown [1]: 0 n (%) | Fatigue, Total [1]: 1 (6.7) n (%) | Gamma-glutamyl transferase increased, Grade 1 [1]: 1 (6.7) n (%) | Gamma-glutamyl transferase increased, Grade 2 [1]: 0 n (%) | Gamma-glutamyl transferase increased, Grade 3 [1]: 0 n (%) | Gamma-glutamyl transferase increased, Grade 4 [1]: 0 n (%) | Gamma-glutamyl transferase increased, Grade 5 [1]: 0 n (%) | Gamma-glutamyl transferase increased, Missing or Unknown [1]: 0 n (%) | Gamma-glutamyl transferase increased, Total [1]: 1 (6.7) n (%) | Gastrointestinal disorders, Grade 1 [1]: 4 (26.7) n (%) | Gastrointestinal disorders, Grade 2 [1]: 0 n (%)
